Data: ChEMBL document CHEMBL1132648, “Butenolide endothelin antagonists with improved aqueous solubility” (J Med Chem, 1999)

conditions: buffer, pH 7.4

Row | Aqueous solubility [ng/mL] | Compound
1 | > 125 | COc1ccc(C(=O)/C(Cc2cc(OC)c(OC)c(OC)c2)=C(\C(=O)[O-])c2ccc3c(c2)OCO3)cc1.[Na+] [PD-156707 SODIUM]
2 | < 0.01 | COc1ccc(C2(O)OC(=O)C(c3ccc4c(c3)OCO4)=C2Cc2cc(OC)c(OC)c(OC)c2)cc1 (stereo not drawn) [PD-156707]
3 | > 250 | COc1ccc(C(=O)/C(Cc2cc(OC)c(OC)c(OCCCC(=O)O)c2)=C(\C(=O)[O-])c2ccc3c(c2)OCO3)cc1.[Na+]
